In US10405547B2, “Substituted cyclic amides as herbicides” (FMC Corporation, priority 2015, dated 2019):

How the values were obtained:
Assay type in all cases: in vivo
[1] = test system: ryegrass, Italian (Lolium multiflorum); experiment: Test A postemergence, Italian ryegrass; details: visual injury, 0 to 100 scale (0 no effect, 100 complete control), approximately 10 days
Outline: (§1)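 Visual injury on a 0 to 100 scale, about 10 days post-spray in the greenhouse. Postemergence plants measured 2–10 cm at one to two leaves; preemergence pots received a directed soil spray. Soil was a loam–sand blend.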

[2] = test system: barnyardgrass (Echinochloa crus-galli); experiment: Test A preemergence, barnyardgrass; details: 0 to 100 scale (0 no effect, 100 complete control)
Outline: as §1

[3] = test system: blackgrass (Alopecurus myosuroides); experiment: Test A postemergence, blackgrass; details: visual injury, 0 to 100 scale (0 no effect, 100 complete control), approximately 10 days
Outline: as §1

[4] = test system: pigweed (Amaranthus retroflexus); experiment: Test A postemergence, pigweed; details: visual injury, 0 to 100 scale (0 no effect, 100 complete control), approximately 10 days
Outline: as §1

[5] = test system: galium (catchweed bedstraw, Galium aparine); experiment: Test A postemergence, galium; details: visual injury, 0 to 100 scale (0 no effect, 100 complete control), approximately 10 days
Outline: as §1

[6] = test system: sedge, umbrella (small-flower umbrella sedge, Cyperus difformis); experiment: Test B flooded paddy test, umbrella sedge; details: 250 g ai/ha, applied to paddy water, visual rating after 13 to 15 days, scale 0 (no effect) to 100 (complete control)
Excerpt: (§2) At time of treatment, test pots were flooded to 3 cm above the soil surface, treated by application of test compounds directly to the paddy water, and then maintained at that water depth for the duration of the test. Treated plants and controls were maintained in a greenhouse for 13 to 15 days, after which time all species were compared to controls and visually evaluated. […] A dash (-) response means no test result.

[7] = test system: pigweed (Amaranthus retroflexus); experiment: Test A preemergence, pigweed; details: 0 to 100 scale (0 no effect, 100 complete control)
Outline: as §1

[8] = test system: ragweed (common ragweed, Ambrosia elatior); experiment: Test A postemergence, ragweed; details: visual injury, 0 to 100 scale (0 no effect, 100 complete control), approximately 10 days
Outline: as §1

[9] = test system: corn (Zea mays); experiment: Test A postemergence, corn; details: visual injury, 0 to 100 scale (0 no effect, 100 complete control), approximately 10 days
Outline: as §1

[10] = test system: ragweed (common ragweed, Ambrosia elatior); experiment: Test A preemergence, ragweed; details: 0 to 100 scale (0 no effect, 100 complete control)
Outline: as §1

[11] = test system: ducksalad (Heteranthera limosa); experiment: Test B flooded paddy test, ducksalad; details: 250 g ai/ha, applied to paddy water, visual rating after 13 to 15 days, scale 0 (no effect) to 100 (complete control)
Excerpt: as §2

[12] = test system: rice (Oryza sativa); experiment: Test B flooded paddy test, rice; details: 250 g ai/ha, applied to paddy water, visual rating after 13 to 15 days, scale 0 (no effect) to 100 (complete control)
Excerpt: as §2

[13] = test system: foxtail, giant (Setaria faberii); experiment: Test A preemergence, giant foxtail; details: 0 to 100 scale (0 no effect, 100 complete control)
Outline: as §1

[14] = test system: barnyardgrass (Echinochloa crus-galli); experiment: Test B flooded paddy test, barnyardgrass; details: 250 g ai/ha, applied to paddy water, visual rating after 13 to 15 days, scale 0 (no effect) to 100 (complete control)
Excerpt: as §2

[15] = test system: ryegrass, Italian (Lolium multiflorum); experiment: Test A preemergence, Italian ryegrass; details: 0 to 100 scale (0 no effect, 100 complete control)
Outline: as §1

[16] = test system: kochia (Kochia scoparia); experiment: Test A preemergence, kochia; details: 0 to 100 scale (0 no effect, 100 complete control)
Outline: as §1

[17] = test system: barnyardgrass (Echinochloa crus-galli); experiment: Test A postemergence, barnyardgrass; details: visual injury, 0 to 100 scale (0 no effect, 100 complete control), approximately 10 days
Outline: as §1

[18] = test system: foxtail, giant (Setaria faberii); experiment: Test A postemergence, giant foxtail; details: visual injury, 0 to 100 scale (0 no effect, 100 complete control), approximately 10 days
Outline: as §1

[19] = test system: wheat (Triticum aestivum); experiment: Test A postemergence, wheat; details: visual injury, 0 to 100 scale (0 no effect, 100 complete control), approximately 10 days
Outline: as §1

[20] = test system: kochia (Kochia scoparia); experiment: Test A postemergence, kochia; details: visual injury, 0 to 100 scale (0 no effect, 100 complete control), approximately 10 days
Outline: as §1

SMILES | Plant response rating, Ryegrass, Italian ([1]; 125 g ai/ha) | Plant response rating, Ryegrass, Italian ([1]; 500 g ai/ha) | Plant response rating, Barnyardgrass ([2]; 125 g ai/ha) | Plant response rating, Barnyardgrass ([2]; 500 g ai/ha) | Plant response rating, Blackgrass ([3]; 125 g ai/ha) | Plant response rating, Blackgrass ([3]; 500 g ai/ha) | Plant response rating, Pigweed ([4]; 125 g ai/ha) | Plant response rating, Pigweed ([4]; 500 g ai/ha) | Plant response rating, Galium ([5]; 125 g ai/ha) | Plant response rating, Galium ([5]; 500 g ai/ha) | Plant response rating, Pigweed ([7]; 125 g ai/ha) | Plant response rating, Pigweed ([7]; 500 g ai/ha) | Plant response rating, Ragweed ([8]; 125 g ai/ha) | Plant response rating, Ragweed ([8]; 500 g ai/ha) | Plant response rating, Corn ([9]; 125 g ai/ha) | Plant response rating, Corn ([9]; 500 g ai/ha) | Plant response rating, Ragweed ([10]; 125 g ai/ha) | Plant response rating, Ragweed ([10]; 500 g ai/ha) | Plant response rating, Foxtail, Giant ([13]; 125 g ai/ha) | Plant response rating, Foxtail, Giant ([13]; 500 g ai/ha) | also measured
O=C1NCC(c2cccc(Oc3ccc(F)cn3)c2)C1C(=O)Nc1cccc(F)c1F (single isomer, unassigned) [Compound 52] | 30 | 60 | 70 | 90 | 30 | 40 | 40 | 60 | 40 | 60 | 60 | 70 | 0 | 60 | 50 | 70 | 40 | 80 | 90 | 90 | Plant response rating, Sedge, Umbrella (Flood) [6]: 0; Plant response rating, Ducksalad (Flood) [11]: 100; Plant response rating, Rice (Flood) [12]: 0; Plant response rating, Barnyardgrass (Flood) [14]: 40; Plant response rating, Ryegrass, Italian ([15]; 125 g ai/ha): 30; Plant response rating, Ryegrass, Italian ([15]; 500 g ai/ha): 40; Plant response rating, Kochia ([16]; 125 g ai/ha): 70; Plant response rating, Kochia ([16]; 500 g ai/ha): 80; Plant response rating, Barnyardgrass ([17]; 125 g ai/ha): 70; Plant response rating, Barnyardgrass ([17]; 500 g ai/ha): 80; Plant response rating, Foxtail, Giant ([18]; 125 g ai/ha): 70; Plant response rating, Foxtail, Giant ([18]; 500 g ai/ha): 90; Plant response rating, Wheat ([19]; 125 g ai/ha): 0; Plant response rating, Wheat ([19]; 500 g ai/ha): 40
CN1CC(c2cccc(Oc3ccc(F)cn3)c2)C(C(=O)Nc2cccc(F)c2F)C1=O (single isomer, unassigned) [Compound 61] | 70 | 70 | 90 | 90 | 40 | 50 | 40 | 70 | 60 | 70 | 70 | 90 | 40 | 50 | 70 | 90 | 30 | 60 | 90 | 90 | Plant response rating, Sedge, Umbrella (Flood) [6]: 0; Plant response rating, Ducksalad (Flood) [11]: 100; Plant response rating, Rice (Flood) [12]: 0; Plant response rating, Barnyardgrass (Flood) [14]: 40; Plant response rating, Ryegrass, Italian ([15]; 125 g ai/ha): 80; Plant response rating, Ryegrass, Italian ([15]; 500 g ai/ha): 90; Plant response rating, Kochia ([16]; 125 g ai/ha): 60; Plant response rating, Kochia ([16]; 500 g ai/ha): 80; Plant response rating, Barnyardgrass ([17]; 125 g ai/ha): 70; Plant response rating, Barnyardgrass ([17]; 500 g ai/ha): 80; Plant response rating, Foxtail, Giant ([18]; 125 g ai/ha): 90; Plant response rating, Foxtail, Giant ([18]; 500 g ai/ha): 90; Plant response rating, Wheat ([19]; 125 g ai/ha): 50; Plant response rating, Wheat ([19]; 500 g ai/ha): 80
O=C1NCC(c2cccc(Oc3ncc(Cl)cn3)c2)C1C(=O)Nc1ccccc1F (centres unmarked) [Compound 55] | 0 | 30 | 0 | 80 | 0 | 0 | 0 | 0 | 0 | 30 | 0 | 0 | 0 | 0 | 0 | 0 | 0 | 0 | 80 | 90 | Plant response rating, Kochia ([20]; 125 g ai/ha): 0; Plant response rating, Kochia ([20]; 500 g ai/ha): 0; Plant response rating, Ryegrass, Italian ([15]; 125 g ai/ha): 0; Plant response rating, Ryegrass, Italian ([15]; 500 g ai/ha): 20; Plant response rating, Kochia ([16]; 125 g ai/ha): 0; Plant response rating, Kochia ([16]; 500 g ai/ha): 20; Plant response rating, Barnyardgrass ([17]; 125 g ai/ha): 30; Plant response rating, Barnyardgrass ([17]; 500 g ai/ha): 80; Plant response rating, Foxtail, Giant ([18]; 125 g ai/ha): 70; Plant response rating, Foxtail, Giant ([18]; 500 g ai/ha): 80; Plant response rating, Wheat ([19]; 125 g ai/ha): 0; Plant response rating, Wheat ([19]; 500 g ai/ha): 0
O=C1NCC(c2cccc(COc3ccccc3)c2)C1C(=O)Nc1ccccc1F (centres unmarked) [Compound 19] | 0 | 0 | 30 | 70 | 0 | 0 | 0 | 0 | 0 | 0 | 0 | 0 | 0 | 0 | 0 | 0 | 0 | 0 | 30 | 80 | Plant response rating, Kochia ([20]; 125 g ai/ha): 0; Plant response rating, Kochia ([20]; 500 g ai/ha): 0; Plant response rating, Ryegrass, Italian ([15]; 125 g ai/ha): 0; Plant response rating, Ryegrass, Italian ([15]; 500 g ai/ha): 0; Plant response rating, Kochia ([16]; 125 g ai/ha): 0; Plant response rating, Kochia ([16]; 500 g ai/ha): 40; Plant response rating, Barnyardgrass ([17]; 125 g ai/ha): 20; Plant response rating, Barnyardgrass ([17]; 500 g ai/ha): 50; Plant response rating, Foxtail, Giant ([18]; 125 g ai/ha): 20; Plant response rating, Foxtail, Giant ([18]; 500 g ai/ha): 40; Plant response rating, Wheat ([19]; 125 g ai/ha): 0; Plant response rating, Wheat ([19]; 500 g ai/ha): 0
O=C1NCC(c2cccc(Cn3cccn3)c2)C1C(=O)Nc1cccc(F)c1F (centres unmarked) [Compound 30] | 0 | 0 | 0 | 50 | 0 | 0 | 0 | 0 | 0 | 0 | 0 | 0 | 0 | 0 | 0 | 0 | 0 | 0 | 20 | 90 | Plant response rating, Kochia ([20]; 125 g ai/ha): 0; Plant response rating, Kochia ([20]; 500 g ai/ha): 0; Plant response rating, Ryegrass, Italian ([15]; 125 g ai/ha): 0; Plant response rating, Ryegrass, Italian ([15]; 500 g ai/ha): 0; Plant response rating, Kochia ([16]; 125 g ai/ha): 0; Plant response rating, Kochia ([16]; 500 g ai/ha): 0; Plant response rating, Barnyardgrass ([17]; 125 g ai/ha): 20; Plant response rating, Barnyardgrass ([17]; 500 g ai/ha): 60; Plant response rating, Foxtail, Giant ([18]; 125 g ai/ha): 30; Plant response rating, Foxtail, Giant ([18]; 500 g ai/ha): 50; Plant response rating, Wheat ([19]; 125 g ai/ha): 0; Plant response rating, Wheat ([19]; 500 g ai/ha): 0
